According to US11066436B2, “5′-phosphorothiolate mRNA 5′-end (cap) analogs, mRNA comprising the same, method of obtaining and uses thereof” (Uniwersytet Warszawski, priority 2016, dated 2021):
Entries after “also recorded” stand apart in the source; their conditions may differ.

Columns and labels:
[1] = target: T1, human DcpS enzyme (hDcpS) (Homo sapiens, UniProt Q96C86); experiment: Susceptibility of cap analogs to degradation by DcpS enzyme (RP-HPLC); assay type: biochemical; conditions: for DcpS susceptibility: cap analog 20 μM, hDcpS 100 nM, RP-HPLC; for hydrolysis by hDcpS: tested as substrates of hDcpS, RP HPLC
T1 construct: made in house
T1 sequence (Q96C86 1-337): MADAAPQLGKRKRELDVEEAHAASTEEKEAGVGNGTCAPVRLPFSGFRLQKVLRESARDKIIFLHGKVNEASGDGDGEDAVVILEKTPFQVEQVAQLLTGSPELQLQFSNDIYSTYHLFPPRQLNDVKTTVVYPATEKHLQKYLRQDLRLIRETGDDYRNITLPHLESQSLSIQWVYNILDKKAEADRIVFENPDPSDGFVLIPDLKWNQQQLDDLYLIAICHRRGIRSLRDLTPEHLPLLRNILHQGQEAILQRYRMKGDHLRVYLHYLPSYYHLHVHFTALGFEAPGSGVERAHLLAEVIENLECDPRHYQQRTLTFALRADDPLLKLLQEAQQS
Experimental: Test 1. The Susceptibility Study of Analogs to Degradation by DcpS Enzyme.
The aim of the test was to check if new 5′-thiophosphate cap analogs are hydrolyzed by human DcpS enzyme (hDcpS). Recombinant human protein encoding DcpS enzyme was expressed as described previously (Kowalska, Lewdorowicz et al. 2008). The susceptibility of new analogs to hDcpS hydrolysis is tested in 50 mM Tris-HCl buffer containing 200 mM KCl and 0.5 mM EDTA. Reaction mixture includes the tested cap analog (20 μM) and hDcpS enzyme (100 nM) in 400 μl of buffer. At the appropriate intervals 100 μl sample is collected from the reaction mixture. Sample is incubated at 98° C. for 2.5 min, and then cooled to 0° C. and analyzed on RP-HPLC under conditions described in general informations. In tests also commercially available inhibitor of DcpS was tested, the compound RG3039 (no. 000) (https://www.mda.org/quest/fda-approves-phase-1-clinical-trial-rg3039-sma), GppSG (no. 19), GpppSG (no. 20), as well m^7GpppG (no. 0) and m^7Gpp (no. 00) as controls. Exemplary results obtained are shown on FIG. 5 and Table 5.

[2] = target: T2, hDcpS enzyme (Homo sapiens, UniProt Q96C86); experiment: IC50 determination for selected inhibitors of DcpS (fluorescence, m^7GMPF probe); assay type: biochemical; conditions: for IC50: m^7GMPF 60 μM, hDcpS 50 nM, tested compound 0-50 μM
T2 construct: made in house
T2 sequence (Q96C86 1-337): T1 sequence (Q96C86 1-337)
Experimental: Test 2. IC50 Determination for Selected Inhibitors
The buffer in this test and in the test 1 is the same. Ten mixture reactions were prepared at the same time and each of them contained a m^7GMPF (60 μM), hDcpS enzyme (50 nM) and the tested compound in concentration range between 0-50 μM in 200 μl of buffer. After appropriate time, when 30% of substrate were converted into product without inhibitor, the reaction was stopped by mixing with 100 μl of ACN. Samples of 25 μl were taken for analysis, followed by mixing with 90 μl of TBDS-fluorescein solution of concentration 2.5 μM in DMSO and incubated for 60 min. Next, 100 μl of 200 mM HEPES buffer pH=7.0 was added to the samples and the fluorescence was measured as described in general information. Based on the results, dependence of inhibitor concentration vs. fluorescence were plotted and the IC50 values were determined by fitting theoretical curve to data.

Structure (SMILES) | DcpS susceptibility [1] | hydrolysis by hDcpS [1] | IC50 [2] | inhibition of hDcpS ([2]; fluorescence method and fluorogenic probe)
COC1C(O)[C@@H](CSP(=O)([O-])OP(=O)(O)OP(=O)(O)OC[C@H]2O[C@@H](n3cnc4c(=O)[nH]c(N)nc43)C(O)C2O)O[C@H]1n1c[n+](C)c2c(O)nc(N)nc21 (stereo partly drawn) [compound 26] | resistant/inhibitor | stability in the presence of DcpS enzyme | 12600 ± 5220 nM | 
C[n+]1cn([C@@H]2O[C@H](COP(=O)(O)OP(=O)([O-])SC[C@H]3O[C@@H](n4cnc5c(=O)[nH]c(N)nc54)C(O)C3O)C(O)C2O)c2nc(N)nc(O)c21 (stereo in doubt) [compound 21] | hydrolyzable | hydrolyzed |  | 
COC1C(O)[C@@H](COP(=O)(O)OP(=O)(O)OP(=O)([O-])SC[C@H]2O[C@@H](n3cnc4c(=O)[nH]c(N)nc43)C(O)C2O)O[C@H]1n1c[n+](C)c2c(O)nc(N)nc21 (stereo partly drawn) [compound 38] | hydrolyzable | hydrolyzed | 72000 ± 17000 nM | 
C[n+]1cn([C@@H]2O[C@H](CSP(=O)(O)OP(=O)([S-])OP(=O)(O)SC[C@H]3O[C@@H](n4cnc5c(=O)[nH]c(N)nc54)C(O)C3O)C(O)C2O)c2nc(N)nc(O)c21 (single isomer, unassigned) [compound 34] | resistant/inhibitor | stability in the presence of DcpS enzyme | 51 ± 8 nM | best inhibitory properties
C[n+]1cn([C@@H]2O[C@H](CSP(=O)([O-])OP(=O)(O)O)C(O)[C@@H]2O)c2nc(N)nc(O)c21 (stereo partly drawn) [compound 12] | resistant/inhibitor | stability in the presence of DcpS enzyme | 1930 ± 380 nM | 
C[n+]1cn([C@@H]2O[C@H](COP(=O)(O)CP(=O)(O)OP(=O)([O-])SC[C@H]3O[C@@H](n4cnc5c(=O)[nH]c(N)nc54)C(O)C3O)C(O)C2O)c2nc(N)nc(O)c21 (stereo partly drawn) [compound 37] | resistant/inhibitor | resistant to hydrolysis; also recorded: stability in the presence of DcpS enzyme | 5670 ± 1010 nM | 
C[n+]1cn([C@@H]2O[C@H](COP(=O)(O)OP(=O)(O)OP(=O)([O-])SC[C@H]3O[C@@H](n4cnc5c(=O)[nH]c(N)nc54)C(O)C3O)C(O)C2O)c2nc(N)nc(O)c21 (stereo partly drawn) [compound 22] | hydrolyzable | hydrolyzed |  | 
C[n+]1cn([C@@H]2O[C@H](CSP(=O)(O)OP(=O)([S-])OP(=O)(O)OC[C@H]3O[C@@H](n4cnc5c(=O)[nH]c(N)nc54)C(O)C3O)C(O)C2O)c2nc(N)nc(O)c21 (stereo partly drawn) [compound 31] | resistant/inhibitor | stability in the presence of DcpS enzyme | 170 ± 20 nM | 
Nc1nc2c(ncn2[C@@H]2O[C@H](COP(=O)(O)OP(=O)(O)SC[C@H]3O[C@@H](n4cnc5c(=O)[nH]c(N)nc54)[C@H](O)[C@@H]3O)[C@@H](O)[C@H]2O)c(=O)[nH]1 [compound 19] | hydrolyzable |  | > 100000 nM | 
C[n+]1cn([C@@H]2O[C@H](CSP(=O)(O)OP(=O)([S-])OP(=O)(O)OC[C@H]3O[C@@H](n4cnc5c(=O)[nH]c(N)nc54)C(O)C3O)C(O)C2O)c2nc(N)nc(O)c21 (stereo partly drawn) [compound 30] | resistant/inhibitor | stability in the presence of DcpS enzyme | 230 ± 40 nM | 
C[n+]1cn([C@@H]2O[C@H](CSP(=O)([O-])OP(=O)(O)OP(=O)(O)SC[C@H]3O[C@@H](n4cnc5c(=O)[nH]c(N)nc54)C(O)C3O)C(O)C2O)c2nc(N)nc(O)c21 (stereo partly drawn) [compound 32] | resistant/inhibitor | stability in the presence of DcpS enzyme | 330 ± 90 nM | 
C[n+]1cn([C@@H]2O[C@H](CSP(=O)([O-])OP(=O)(O)OP(=O)(O)OC[C@H]3O[C@@H](n4cnc5c(=O)[nH]c(N)nc54)C(O)C3O)C(O)C2O)c2nc(N)nc(O)c21 (stereo partly drawn) [compound 24] | resistant/inhibitor | resistant; also recorded: stability in the presence of DcpS enzyme | 840 ± 70 nM | 
C[n+]1cn([C@@H]2O[C@H](COP(=O)(O)OP(=O)([S-])OP(=O)(O)SC[C@H]3O[C@@H](n4cnc5c(=O)[nH]c(N)nc54)C(O)C3O)C(O)C2O)c2nc(N)nc(O)c21 (stereo partly drawn) [compound 35] | hydrolyzable | hydrolyzed |  | 
C[n+]1cn([C@@H]2O[C@H](COP(=O)(O)OP(=O)([S-])OP(=O)(O)SC[C@H]3O[C@@H](n4cnc5c(=O)[nH]c(N)nc54)C(O)C3O)C(O)C2O)c2nc(N)nc(O)c21 (stereo partly drawn) [compound 36] | hydrolyzable | hydrolyzed |  | 
Nc1nc2c(ncn2[C@@H]2O[C@H](COP(=O)(O)OP(=O)(O)OP(=O)(O)SC[C@H]3O[C@@H](n4cnc5c(=O)[nH]c(N)nc54)[C@H](O)[C@@H]3O)[C@@H](O)[C@H]2O)c(=O)[nH]1 [compound 20] | hydrolyzable |  | > 100000 nM | 
C[n+]1cn([C@@H]2O[C@H](CSP(=O)(O)OP(=O)([S-])OP(=O)(O)SC[C@H]3O[C@@H](n4cnc5c(=O)[nH]c(N)nc54)C(O)C3O)C(O)C2O)c2nc(N)nc(O)c21 (single isomer, unassigned) [compound 33] | resistant/inhibitor | stability in the presence of DcpS enzyme | 260 ± 40 nM | 
C[n+]1cn([C@@H]2O[C@H](CSP(=O)([O-])OP(=O)(O)CP(=O)(O)OC[C@H]3O[C@@H](n4cnc5c(=O)[nH]c(N)nc54)C(O)C3O)C(O)C2O)c2nc(N)nc(O)c21 (stereo partly drawn) [compound 25] | resistant/inhibitor | stability in the presence of DcpS enzyme | 6250 ± 1220 nM | 
C[n+]1cn([C@@H]2O[C@H](COP(=O)(O)OP(=O)(O)O)[C@@H](O)[C@H]2O)c2nc(N)nc([O-])c21 [compound 00] | resistant/inhibitor |  | 4300 ± 780 nM | 
C[n+]1cn([C@@H]2O[C@H](CSP(=O)([O-])OP(=O)(O)OC[C@H]3O[C@@H](n4cnc5c(=O)[nH]c(N)nc54)C(O)C3O)C(O)C2O)c2nc(N)nc(O)c21 (stereo in doubt) [compound 23] | resistant/inhibitor | stability in the presence of DcpS enzyme | 2810 ± 510 nM | 
